We go through 1 substance from US20110223642A1, “METHOD FOR INHIBITING BACTERIA GROWTH DURING ETHANOL FERMENTATION” (priority 2010, published 2011).

The test system of the experiment is gram positive bacteria. Put plainly: Inhibition of gram positive bacteria growth in corn mash media. The class given is cell-based. The note with it: typical corn mash media. On the procedure:
If added just to a propagator the isopellets should be diluted down to 2 to 20 ppm in a fermenter. The hop acids employed are not limited to isomerized hop acids but can also be stabilized unisomerized hop pellets. The stabilized hop pellet, can be isomerized into isoalpha acids once placed into 70° C. or hotter hot water for thirty or more minutes. Once this isomerization is completed the mixture can be added to the yeast propagator or fermenter. The unexpected results include reduced levels of isoalpha acid required to inhibit gram positive bacteria growth, better antibacterial protection toward the end of fermentation, and increased yeast alcohol tolerance. Typically about 15 ppm of isoalpha acid is required to inhibit most gram positive bacteria growth in a typical corn mash media; however, we discovered that isomerized hop pellets made in accordance with the present invention can inhibit bacteria growth at an isoalpha acid dosage of about 12 ppm. While not wishing to be bound by theory, it is believed iso-pellets made in accordance with the present invention also contain beta acids, which are very effective at inhibiting gram positive bacteria growth. Unfortunately beta acids ordinarily are not soluble in corn mash or cereal fermentations, and thus their antibacterial effect is worthless. […]

Take isoalpha acid: the “isoalpha acid dosage required to inhibit gram positive bacteria growth” value is “about 15 ppm”.
